{
  "source": "patent US6737417B2",
  "about": "“Compounds with hydroxycarbonyl-halogenoalkyl side chain” (Chugai Seiyaku Kabushiki Kaisha, priority 1999, dated 2004)",
  "data": [
    {"tested_on": "ovariectomized mice administered with 17β-estradiol", "test": "Anti-estrogenic activity (oral administration): inhibition of estradiol-induced increase in uterine weight in ovariectomized mice", "assay_type": "in vivo", "conditions": "10 mg/kg p.o., once a day for 3 days, ovariectomized ICR mice given 17β-estradiol-benzoate 0.1 μg/mouse s.c. for 3 days", "method": "(§1) Test compounds were assayed for their oral anti-estrogenic activity in the following manner. In this experiment, the compounds prepared in Examples 5, 12, 14-33, 37 and 38 were used as test compounds. As control compounds, those having the same structures in the parent scaffold as the test compounds were used, that is, ZM189154 for Examples 5 and 27-33 and ICI182780 for Examples 12, 14-26, 37 and 38.\n(§2) In this experiment, each of the test and control compounds was suspended in 5% arabic gum solution and orally administered for 3 days on a once-a-day basis. After 24 hours from the last administration, the test animals were sacrificed and the uteri were removed and weighed.", "units": {"Inhibition (%)": "%"}, "values": [
      {"smiles": "C[C@]1(c2ccc(O)cc2)CCc2cc(O)ccc2[C@H]1CCCCCCCCC[S+]([O-])CCCC(F)(F)C(F)(F)F", "note": "(some centres unmarked) [ZM189154, reference compound]", "Inhibition (%)": 42}
    ]},
    {"tested_on": "ovariectomized mice administered with 17β-estradiol", "test": "Anti-estrogenic activity (oral administration): inhibition of estradiol-induced increase in uterine weight in ovariectomized mice", "assay_type": "in vivo", "conditions": "10 mg/kg p.o., once a day for 3 days, ovariectomized ICR mice given 17β-estradiol-benzoate 0.1 μg/mouse s.c. for 3 days, 10 mg/kg", "method": "as §1, §2", "units": {"Inhibition (%)": "%"}, "values": [
      {"smiles": "C[C@]12C[C@H](CCCCCCCCC(CCCCCC(F)(F)C(F)(F)F)C(=O)O)[C@@H]3c4ccc(O)cc4CC[C@H]3[C@@H]1CC[C@@H]2O", "note": "(stereo partly drawn) [Example 26, 10-(3,17β-dihydroxyestra-1,3,5(10)-trien-11β-yl)-2-(6,6,7,7,7-pentafluoroheptyl)decanoic Acid]", "Inhibition (%)": 96}
    ]},
    {"tested_on": "ovariectomized mice administered with 17β-estradiol", "test": "Anti-estrogenic activity (oral administration): inhibition of estradiol-induced increase in uterine weight in ovariectomized mice", "assay_type": "in vivo", "conditions": "po, 24 h, 10 mg/kg p.o., once a day for 3 days, ovariectomized ICR mice given 17β-estradiol-benzoate 0.1 μg/mouse s.c. for 3 days", "method": "as §1, §2", "units": {"inhibition in vivo at 10 mg/kg": "%"}, "values": [
      {"smiles": "C[C@]12C[C@H](CCCCCCCCC(CCCC(F)(F)C(F)(F)F)C(=O)O)[C@@H]3c4ccc(O)cc4CC[C@H]3[C@@H]1CC[C@@H]2O", "note": "(stereo partly drawn) [Example 21, 10-(3,17β-dihydroxyestra-1,3,5(10)-trien-11β-yl)-2-(4,4,5,5,5-pentafluoropentyl)decanoic Acid]", "inhibition in vivo at 10 mg/kg": 99},
      {"smiles": "C[C@]12CC[C@@H]3c4ccc(O)cc4C[C@@H](CCCCCCCCC[S+]([O-])CCCC(F)(F)C(F)(F)F)[C@H]3[C@@H]1CC[C@@H]2O", "note": "(some centres unmarked) [ICI182780, reference compound]", "inhibition in vivo at 10 mg/kg": 51},
      {"smiles": "O=C(O)C(CCCCCCCCCCc1c(-c2ccc(O)c(F)c2)ccc2cc(O)ccc12)CCCC(F)(F)C(F)(F)F", "note": "(centres unmarked) [Example 33, 12-[2-(3-fluoro-4-hydroxyphenyl)-6-hydroxynaphth-1-yl]-2-(4,4,5,5,5-pentafluoropentyl)dodecanoic Acid]", "inhibition in vivo at 10 mg/kg": 64},
      {"smiles": "C[C@]12CC[C@@H]3c4ccc(O)cc4C[C@@H](CCCCCCCC[C@H](CCCC(F)(F)C(F)(F)C(F)(F)C(F)(F)F)C(=O)O)[C@H]3[C@@H]1CC[C@@H]2O", "note": "[Example 37, (2R)-10-(3,17β-dihydroxyestra-1,3,5(10)-trien-7α-yl)-2-(4,4,5,5,6,6,7,7,7-nonafluoroheptyl)decanoic Acid]", "inhibition in vivo at 10 mg/kg": 101},
      {"smiles": "C[C@]12CC[C@@H]3c4ccc(O)cc4C[C@@H](CCCCCCCCC(CCCC(F)(F)C(F)(F)F)C(=O)O)[C@H]3[C@@H]1CC[C@@H]2O", "note": "(stereo partly drawn) [Example 14, 10-[3,17β-dihydroxyestra-1,3,5(10)-trien-7α-yl]-2-(4,4,5,5,5-pentafluoropentyl)decanoic Acid]", "inhibition in vivo at 10 mg/kg": 87},
      {"smiles": "C[C@]12C[C@H](CCCCCCCCCC(CCCC(F)(F)C(F)(F)C(F)(F)C(F)(F)F)C(=O)O)[C@@H]3c4ccc(O)cc4CC[C@H]3[C@@H]1CC[C@@H]2O", "note": "(stereo partly drawn) [Example 25, 11-(3,17β-dihydroxyestra-1,3,5(10)-trien-11β-yl)-2-(4,4,5,5,6,6,7,7,7-nonafluoroheptyl)undecanoic Acid]", "inhibition in vivo at 10 mg/kg": 93},
      {"smiles": "CCc1cc(O)ccc1-c1ccc2cc(O)ccc2c1CCCCCCCCCCC(CCCC(F)(F)C(F)(F)F)C(=O)O", "note": "(centres unmarked) [Example 30, 12-[2-(2-ethyl-4-hydroxyphenyl)-6-hydroxynaphth-1-yl]-2-(4,4,5,5,5-pentafluoropentyl)dodecanoic Acid]", "inhibition in vivo at 10 mg/kg": 58},
      {"smiles": "C[C@]12CC[C@@H]3c4ccc(O)cc4C[C@@H](CCCCCCCCC(CCCCCC(F)(F)C(F)(F)F)C(=O)O)[C@H]3[C@@H]1CC[C@@H]2O", "note": "(stereo partly drawn) [Example 17, 10-[3,17β-dihydroxyestra-1,3,5(10)-trien-7α-yl]-2-(6,6,7,7,7-pentafluoroheptyl)decanoic Acid]", "inhibition in vivo at 10 mg/kg": 94},
      {"smiles": "C[C@]12C[C@H](CCCCCCCCCC(CCCC(F)(F)C(F)(F)F)C(=O)O)[C@@H]3c4ccc(O)cc4CC[C@H]3[C@@H]1CC[C@@H]2O", "note": "(stereo partly drawn) [Example 24, 11-(3,17β-dihydroxyestra-1,3,5(10)-trien-11β-yl)-2-(4,4,5,5,5-pentafluoropentyl)undecanoic Acid]", "inhibition in vivo at 10 mg/kg": 98},
      {"smiles": "C[C@]12C[C@H](CCCCCCCCC(CCCC(F)(F)C(F)(F)C(F)(F)C(F)(F)F)C(=O)O)[C@@H]3c4ccc(O)cc4CC[C@H]3[C@@H]1CC[C@@H]2O", "note": "(stereo partly drawn) [Example 22, 10-(3,17β-dihydroxyestra-1,3,5(10)-trien-11β-yl)-2-(4,4,5,5,6,6,7,7,7-nonafluoroheptyl)decanoic Acid]", "inhibition in vivo at 10 mg/kg": 98},
      {"smiles": "C[C@]12CC[C@@H]3c4ccc(O)cc4C[C@@H](CCCCCCCCC(CCC(F)(F)C(F)(F)C(F)(F)C(F)(F)F)C(=O)O)[C@H]3[C@@H]1CC[C@@H]2O", "note": "(stereo partly drawn) [Example 16, 10-[3,17β-dihydroxyestra-1,3,5(10)-trien-7α-yl]-2-(3,3,4,4,5,5,6,6,6-nonafluorohexyl)decanoic Acid]", "inhibition in vivo at 10 mg/kg": 98},
      {"smiles": "C[C@]12CC[C@@H]3c4ccc(O)cc4C[C@@H](CCCCCCCCC(CCCC(F)(F)C(F)(F)C(F)(F)C(F)(F)F)C(=O)O)[C@H]3[C@@H]1CC[C@@H]2O", "note": "(stereo partly drawn) [Example 15, 10-[3,17β-dihydroxyestra-1,3,5(10)-trien-7α-yl]-2-(4,4,5,5,6,6,7,7,7-nonafluoroheptyl)decanoic Acid]", "inhibition in vivo at 10 mg/kg": 96},
      {"smiles": "C[C@]12C[C@H](CCCCCCCCCC(CCC(F)(F)C(F)(F)C(F)(F)C(F)(F)F)C(=O)O)[C@@H]3c4ccc(O)cc4CC[C@H]3[C@@H]1CC[C@@H]2O", "note": "(stereo partly drawn) [Example 20, 11-(3,17β-dihydroxyestra-1,3,5(10)-trien-11β-yl)-2-(3,3,4,4,5,5,6,6,6-nonafluorohexyl)undecanoic Acid]", "inhibition in vivo at 10 mg/kg": 94},
      {"smiles": "C[C@]1(c2ccc(O)cc2)CCc2cc(O)ccc2C1CCCCCCCCC(CCCC(F)(F)C(F)(F)F)C(=O)O", "note": "(mixture of isomers) [Example 5, 10-[(1RS, 2RS)-6-hydroxy-2-(4-hydroxyphenyl)-2-methyl-1,2,3,4-tetrahydro-1-naphthyl]-2-(4,4,5,5,5-pentafluoropentyl)decanoic Acid]", "inhibition in vivo at 10 mg/kg": 67},
      {"smiles": "Cc1cc(O)ccc1-c1ccc2cc(O)ccc2c1CCCCCCCCCCC(CCCC(F)(F)C(F)(F)F)C(=O)O", "note": "(centres unmarked) [Example 29, 12-[6-hydroxy-2-(4-hydroxy-2-methylphenyl)-naphth-1-yl]-2-(4,4,5,5,5-pentafluoropentyl)dodecanoic Acid]", "inhibition in vivo at 10 mg/kg": 80},
      {"smiles": "C[C@]12CC[C@@H]3c4ccc(O)cc4C[C@@H](CCCCCCCC[C@@H](CCCC(F)(F)C(F)(F)C(F)(F)C(F)(F)F)C(=O)O)[C@H]3[C@@H]1CC[C@@H]2O", "note": "[Example 38, (2S)-10-(3,17β-dihydroxyestra-1,3,5(10)-trien-7α-yl)-2-(4,4,5,5,6,6,7,7,7-nonafluoroheptyl)decanoic Acid]", "inhibition in vivo at 10 mg/kg": 100},
      {"smiles": "C[C@]12C[C@H](CCCCCCCCC(CCCCCC(F)(F)C(F)(F)F)C(=O)O)[C@@H]3c4ccc(O)cc4CC[C@H]3[C@@H]1CC[C@@H]2O", "note": "(stereo partly drawn) [Example 12, 10-[3,17β-dihydroxyestra-1,3,5(10)-trien-11β-yl]-2-(6,6,7,7,7-pentafluoroheptyl)decanoic Acid]", "inhibition in vivo at 10 mg/kg": 97},
      {"smiles": "O=C(O)C(CCCCCCCCCCc1c(-c2ccc(O)cc2F)ccc2cc(O)ccc12)CCCC(F)(F)C(F)(F)F", "note": "(centres unmarked) [Example 31, 12-[2-(2-fluoro-4-hydroxyphenyl)-6-hydroxynaphth-1-yl]-2-(4,4,5,5,5-pentafluoropentyl)dodecanoic Acid]", "inhibition in vivo at 10 mg/kg": 75},
      {"smiles": "C[C@]12C[C@H](CCCCCCCCC(CCC(F)(F)C(F)(F)C(F)(F)C(F)(F)F)C(=O)O)[C@@H]3c4ccc(O)cc4CC[C@H]3[C@@H]1CC[C@@H]2O", "note": "(stereo partly drawn) [Example 23, 10-(3,17β-dihydroxyestra-1,3,5(10)-trien-11β-yl)-2-(3,3,4,4,5,5,6,6,6-nonafluorohexyl)decanoic Acid]", "inhibition in vivo at 10 mg/kg": 98},
      {"smiles": "O=C(O)C(CCCCCCCCCCc1c(-c2ccc(O)cc2C(F)(F)F)ccc2cc(O)ccc12)CCCC(F)(F)C(F)(F)F", "note": "(centres unmarked) [Example 32, 12-[6-hydroxy-2-(4-hydroxy-2-trifluoromethylphenyl)naphth-1-yl]-2-(4,4,5,5,5-pentafluoropentyl)-dodecanoic Acid]", "inhibition in vivo at 10 mg/kg": 73},
      {"smiles": "C[C@]12CC[C@@H]3c4ccc(O)cc4C[C@@H](CCCCCCCCCC(CCCC(F)(F)C(F)(F)C(F)(F)C(F)(F)F)C(=O)O)[C@H]3[C@@H]1CC[C@@H]2O", "note": "(stereo partly drawn) [Example 18, 11-[3,17β-dihydroxyestra-1,3,5(10)-trien-7α-yl]-2-(4,4,5,5,6,6,7,7,7-nonafluoroheptyl)undecanoic Acid]", "inhibition in vivo at 10 mg/kg": 85},
      {"smiles": "O=C(O)C(CCCCCCCCCc1c(-c2ccc(O)cc2)ccc2cc(O)ccc12)CCC(F)(F)C(F)(F)C(F)(F)C(F)(F)F", "note": "(centres unmarked) [Example 28, 11-[6-hydroxy-2-(4-hydroxyphenyl)naphth-1-yl]-2-(3,3,4,4,5,5,6,6,6-nonafluorohexyl)undecanoic Acid]", "inhibition in vivo at 10 mg/kg": 68},
      {"smiles": "O=C(O)C(CCCCCCCCCCc1c(-c2ccc(O)cc2)ccc2cc(O)ccc12)CCCC(F)(F)C(F)(F)F", "note": "(centres unmarked) [Example 27, 12-[6-hydroxy-2-(4-hydroxyphenyl)naphth-1-yl]-2-(4,4,5,5,5-pentafluoropentyl)dodecanoic Acid]", "inhibition in vivo at 10 mg/kg": 64},
      {"smiles": "C[C@]12CC[C@@H]3c4ccc(O)cc4C[C@@H](CCCCCCCCCC(CCC(F)(F)C(F)(F)C(F)(F)C(F)(F)F)C(=O)O)[C@H]3[C@@H]1CC[C@@H]2O", "note": "(stereo partly drawn) [Example 19, 11-[3,17β-dihydroxyestra-1,3,5(10)-trien-7α-yl]-2-(3,3,4,4,5,5,6,6,6-nonafluorohexyl)undecanoic Acid]", "inhibition in vivo at 10 mg/kg": 92}
    ]}
  ]
}
